Molecular target: T1, ERα (Homo sapiens, UniProt P03372)
T1 construct: host or cells: MCF7
T1 sequence (P03372 1-595): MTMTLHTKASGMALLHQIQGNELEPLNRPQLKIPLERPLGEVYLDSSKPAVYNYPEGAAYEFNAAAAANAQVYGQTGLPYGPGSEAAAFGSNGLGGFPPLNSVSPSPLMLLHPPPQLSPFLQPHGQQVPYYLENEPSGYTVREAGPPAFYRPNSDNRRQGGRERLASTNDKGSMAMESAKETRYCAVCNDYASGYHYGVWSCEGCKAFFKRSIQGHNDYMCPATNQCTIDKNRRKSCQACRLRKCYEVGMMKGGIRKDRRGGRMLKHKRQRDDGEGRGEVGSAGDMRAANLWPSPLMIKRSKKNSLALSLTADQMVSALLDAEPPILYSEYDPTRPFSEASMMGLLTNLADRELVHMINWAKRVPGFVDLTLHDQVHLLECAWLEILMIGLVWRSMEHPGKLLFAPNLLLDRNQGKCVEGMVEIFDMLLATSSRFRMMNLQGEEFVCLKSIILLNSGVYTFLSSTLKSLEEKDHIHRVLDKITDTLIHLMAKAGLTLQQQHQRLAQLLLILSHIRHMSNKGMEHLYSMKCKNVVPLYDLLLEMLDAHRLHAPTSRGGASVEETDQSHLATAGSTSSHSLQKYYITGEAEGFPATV
Assay: Estrogen receptor degradation activity: breast cancer cell ERα in cell western assay (MCF7 cells)
Assay type: cell-based
Settings: for % Degradation At 0.3 μM: 4 hours, relative to fulvestrant 0.1 μM positive control; for DC50: 4 hours post compound addition, concentration which degrades 50% of the estrogen receptor, read-out: Degradation IC50
Experimental: Test: Estrogen Receptor Degradation Activity Said test involves measuring the in vitro degradation activity of the compounds of the Table 1a. The measurements of the degradation activities were made using a breast cancer cell ERα in cell western assay as described hereunder. MCF7 cells (ATCC) were seeded in 384 wells microplate (collagen coated) at a concentration of 10000 cells/30 μL per well in red phenol free MEM alpha medium (invitrogen) containing 5% charcoal dextran striped FBS. The following day, 9 points serial 1:5 dilution of each compound was added to the cells in 2.5 μL at final concentrations ranging from […] (in table 2), or 0.1 μM for fulvestrant (using as positive control). At 4 hours post compound addition the cells were fixed by adding 25 μL of formalin (final concentration 5% formalin containing 0.1% triton) for 10 minutes at room temperature and then washed twice with PBS. Then, 50 μL of LI-COR blocking buffer containing 0.1% Triton was added to plate for 30 minutes at room temperature. LI-COR blocking buffer was removed and cells were incubated overnight at cold room with 50 μL anti-ER rabbit monoclonal antibody (Thermo scientific MA1-39540) diluted at 1:1000 in LI-COR blocking buffer containing 0.1% tween-20. Wells which were treated with blocking buffer but no antibody were used as background control. Wells were washed twice with PBS (0.1% tween-20) and incubated at 37° C. for 60 minutes in LI-COR (0.1% tween-20) containing goat anti-rabbit antibody Alexa 488 (1:1000) and Syto-64 a DNA dye (2 μM final concentration). Cells were then washed 3 times in PBS and scanned in ACUMEN explorer (TTP-Labtech). Integrated intensities in the green fluorescence and red fluorescence were measured to determine the levels of ERα and DNA respectively. The degradation activity with respect to estrogen receptors in this test is given by the concentration which degrades 50% of the estrogen receptor (or IC50) in nM. […] DMSO−fulvestrant)).

Structure (SMILES) | % Degradation At 0.3 μM [%] | DC50 [nM]
O=C(O)c1ccc2c(c1)CCCC(c1c(F)cccc1Cl)=C2c1ccc(C=C2CN(CCCF)C2)cc1 [Example 42, 8-(2-chloro-6-fluorophenyl)-9-(4-((1-(3-fluoropropyl)azetidin-3-ylidene)methyl)phenyl)-6,7-dihydro-5H-benzo[7]annulene-3-carboxylic acid] | 91 | 0.2
Cc1c(C2=C(c3ccc(C=C4CN(CCC(F)F)C4)cc3)c3ccc(C(=O)O)cc3CCC2)ccc(Cl)c1F [Example 127, 8-(4-chloro-3-fluoro-2-methylphenyl)-9-(4-((1-(3,3-difluoropropyl)azetidin-3-ylidene)methyl)phenyl)-6,7-dihydro-5H-benzo[7]annulene-3-carboxylic acid] | 93 | 0.6
O=C(O)c1ccc2c(c1)CCCC(c1cccc(F)c1Cl)=C2c1ccc(C=C2CN(CCCF)C2)cc1 [Example 78, 8-(2-chloro-3-fluorophenyl)-9-(4-((1-(3-fluoropropyl)azetidin-3-ylidene)methyl)phenyl)-6,7-dihydro-5H-benzo[7]annulene-3-carboxylic acid] | 93 | 0.6
O=C(O)c1ccc2c(c1)CCCC([C@H]1[C@@H]3CCCC[C@@H]31)=C2c1ccc(C=C2CN(CCCF)C2)cc1 [Example 174, 84(1R,6S,70-bicyclo[4.1.0]heptan-7-yl)-9-(4-((1-(3-fluoropropyl)azetidin-3-ylidene)methyl)phenyl)-6,7-dihydro-5H-benzo[7]annulene-3-carboxylic acid] | 86 | 2.6
COc1ccc(C2=C(c3ccc(C=C4CN(CCCF)C4)cc3)c3ccc(C(=O)O)cc3CCC2)c(Cl)c1 [Example 75, 8-(2-chloro-4-methoxyphenyl)-9-(4-((1-(3-fluoropropyl)azetidin-3-ylidene)methyl)phenyl)-6,7-dihydro-5H-benzo[7]annulene-3-carboxylic acid] | 92 | 1.1
O=C(O)c1ccc2c(c1)CCCC(CCc1ccccc1)=C2c1ccc(C=C2CN(CCCF)C2)cc1 [Example 168, 9-(4-((1-(3-fluoropropyl)azetidin-3-ylidene)methyl)phenyl)-8-phenethyl-6,7-dihydro-5H-benzo[7]annulene-3-carboxylic acid] | 95 | 0.3
Cl.O=C(O)c1ccc2c(c1)CCCC(c1ccc(Cl)cc1Cl)=C2c1cc(F)c(C=C2CN(CCCF)C2)c(F)c1 [Example 105, 8-(2,4-dichlorophenyl)-9-(3,5-difluoro-4-((1-(3-fluoropropyl)azetidin-3-ylidene)methyl)phenyl)-6,7-dihydro-5H-benzo[7]annulene-3-carboxylic acid] | 94 | 0.1
O=C(O)c1ccc2c(c1)CCCC(c1cccc(C(F)(F)F)c1Cl)=C2c1ccc(C=C2CN(CCC(F)F)C2)cc1 [Example 133, 8-(2-chloro-3-(trifluoromethyl)phenyl)-9-(4-((1-(3,3-difluoropropyl)azetidin-3-ylidene)methyl)phenyl)-6,7-dihydro-5H-benzo[7]annulene-3-carboxylic acid] | 92 | 1
Cc1ccc(F)cc1C1=C(c2ccc(C=C3CN(CCCF)C3)cc2)c2ccc(C(=O)O)cc2CCC1 [Example 38, 8-(5-fluoro-2-methylphenyl)-9-(4-((1-(3-fluoropropyl)azetidin-3-ylidene)methyl)phenyl)-6,7-dihydro-5H-benzo[7]annulene-3-carboxylic acid] | 91 | 0.2
[2H]C([2H])(CC(F)F)N1CC(=Cc2ccc(C3=C(c4ccc(Cl)cc4Cl)CCCc4cc(C(=O)O)ccc43)cc2)C1 [Example 117, 8-(2,4-dichlorophenyl)-9-(4-((1-(3,3-difluoropropyl-1,1-d2)azetidin-3-ylidene)methyl)phenyl)-6,7-dihydro-5H-benzo[7]annulene-3-carboxylic acid] | 90 | 0.9
O=C(O)c1ccc2c(c1)CCCC(c1ccc(F)cc1F)=C2c1c(F)cc(C=C2CN(CCCF)C2)cc1F [Example 52, 9-(2,6-difluoro-4-((1-(3-fluoropropyl)azetidin-3-ylidene)methyl)phenyl)-8-(2,4-difluorophenyl)-6,7-dihydro-5H-benzo[7]annulene-3-carboxylic acid] | 97 | 0.3
Cl.O=C(O)c1ccc2c(c1)CCCC(c1ccc(Cl)cc1Cl)=C2c1cc(F)c(C=C2CN(CCCF)C2)cc1F [Example 92, 8-(2,4-dichlorophenyl)-9-(2,5-difluoro-4-((1-(3-fluoropropyl)azetidin-3-ylidene)methyl)phenyl)-6,7-dihydro-5H-benzo[7]annulene-3-carboxylic acid hydrochloride] | 98 | 0.3
[2H]C([2H])(CCF)N1CC(=Cc2ccc(C3=C(c4ccc(Cl)cc4Cl)CCCc4cc(C(=O)O)ccc43)cc2)C1 [Example 122, 8-(2,4-dichlorophenyl)-9-(4-((1-(3-fluoropropyl-1,1-d2)azetidin-3-ylidene)methyl)phenyl)-6,7-dihydro-5H-benzo[7]annulene-3-carboxylic acid] | 94 | 0.4
Cc1cccc(C2=C(c3ccc(C=C4CN(CCC(F)(F)F)C4)cc3)c3ccc(C(=O)O)cc3CCC2)c1C(F)(F)F [Example 110, 8-(3-methyl-2-(trifluoromethyl)phenyl)-9-(4-((1-(3,3,3-trifluoropropyl)azetidin-3-ylidene)methyl)phenyl)-6,7-dihydro-5H-benzo[7]annulene-3-carboxylic acid] | 93 | 2.9
O=C(O)c1ccc2c(c1)CCCC(c1cc(F)cc3c1CCC3)=C2c1ccc(C=C2CN(CCC(F)F)C2)cc1 [Example 162, 9-(4-((1-(3,3-difluoropropyl)azetidin-3-ylidene)methyl)phenyl)-8-(6-fluoro-2,3-dihydro-1H-inden-4-yl)-6,7-dihydro-5H-benzo[7]annulene-3-carboxylic acid] | 93 | 1.9
O=C(O)c1ccc2c(c1)CCCC(c1ccc(F)c3c1CCC3)=C2c1ccc(C=C2CN(CCCF)C2)cc1 [Example 12, 8-(7-fluoro-2,3-dihydro-1H-inden-4-yl)-9-(4-((1-(3-fluoropropyl)azetidin-3-ylidene)methyl)phenyl)-6,7-dihydro-5H-benzo[7]annulene-3-carboxylic acid] | 93 | 0.4
Cc1cc(C#N)ccc1C1=C(c2ccc(C=C3CN(CCCF)C3)cc2)c2ccc(C(=O)O)cc2CCC1 [Example 84, 8-(4-cyano-2-methylphenyl)-9-(4-((1-(3-fluoropropyl)azetidin-3-ylidene)methyl)phenyl)-6,7-dihydro-5H-benzo[7]annulene-3-carboxylic acid] | 92 | 2.1
O=C(O)c1ccc2c(c1)CCCC(c1ccc(F)cc1C1CC1)=C2c1ccc(C=C2CN(CCCF)C2)cc1 [Example 40, 8-(2-cyclopropyl-4-fluorophenyl)-9-(4-((1-(3-fluoropropyl)azetidin-3-ylidene)methyl)phenyl)-6,7-dihydro-5H-benzo[7]annulene-3-carboxylic acid] | 87 | 0.3
O=C(O)c1ccc2c(c1)CCCC(c1ccc(F)cc1Cl)=C2c1ccc(C=C2CN(CCCF)C2)cc1 [Example 79, 8-(2-chloro-4-fluorophenyl)-9-(4-((1-(3-fluoropropyl)azetidin-3-ylidene)methyl)phenyl)-6,7-dihydro-5H-benzo[7]annulene-3-carboxylic acid] | 97 | 0.4
CC(C)CC1=C(c2ccc(C=C3CN(CCCF)C3)cc2)c2ccc(C(=O)O)cc2CCC1 [Example 100, 9-(4-((1-(3-Fluoropropyl)azetidin-3-ylidene)methyl)phenyl)-8-isobutyl-6,7-dihydro-5H-benzo[7]annulene-3-carboxylic acid] | 94 | 0.3
